In patent publication US9428542B2, “Lupane triterpenoid derivatives and pharmaceutical use thereof” (priority 2012, dated 2016):

Key:
[1] = system: MT-2 cells; assay: Compounds' cytotoxicity assay in MT-2 cells (CellTiter-Glo); format: cell-based; set-up: unit not given here; details: toxicity in MT-2 cells, 3 days
Method: 3. Method for Compounds' Cytotoxicity Assay:
The MT-2 cells are diluted to a needed concentration. 90 μl of the MT-2 cells suspension was added into 384-well plates containing 10 μl of the tested compounds. Compounds were dissolved in DMSO and tested as 11 points 3-fold serial dilutions. After addition of cells to compound plates, plates were placed to humidified 5% CO2 37 incubator for 3 days. The Luciferase activity was measured by CellTiter-Glo® Luminescent Cell Viability Assay kit (Promega Corp., WI, USA).
(§1) TC50 is referred to the toxicity in MT-2 cells by the compounds tested at 50% concentration; IC50 is referred to the inhibiting HIV-1IIIB replication in MT-2 cells by the compounds tested at 50% concentration; Therapeutic Index (TI)=TC50/IC50.

[2] = system: HIV-1IIIB; assay: HIV-1 full replication assay (HIV-1IIIB-infected MT-2 cells, supernatant read out on TZM-bl cells, β-Gal); format: cell-based; details: inhibiting HIV-1IIIB replication in MT-2 cells, 3 days; for IC50: Human immunodeficiency virus 1, MT2, 72 h, read-out: IC50 (PM)
Method: The antiviral activity of the compounds of the present invention was determined in a HIV-1 full replication assay.
In this assay, MT-2 cells that are infected with HIV-1IIIB were co-cultured with different concentration of the tested compounds for 3 days and then supernatant is transferred into new 384-well plates containing TZM-bl cells (also called JC53-bl). TZM-bl cells that could be infected by various kinds of HIV-1 strains stably express a great amount of HIV-1 receptor, co-receptor CD4 molecular, and co-receptor CXCR4 and CCR5. TZM-bl cells harbor LTR-luciferase and β-gal two report genes. The expression of luciferase and β-gal reporter directed by HIV-1 LTR can be activated by Tat protein generated after HIV infection, and the quantity of expression is proportional to the quantity of HIV-1. Compounds that interfere with virus replication in MT-2 cells, maturation of the virus, or post-entry steps in the HIV lifecycle decrease the luciferase signal or β-gal signal. In this experiment, BVM (Bevirimat, PA-457) is used as a positive control drug.
Method for Inhibiting HIV-1 Replication Assay:
The MT-2 cells are infected at a Multiciplicity (MOI) of 0.01 TCID50, and then the MT-2 cells suspension was diluted to a needed concentration. 90 μl of the MT-2 cells suspension from above was added into 384-well plates containing 10 μl of the tested compounds.
Compounds were dissolved in DMSO and tested as 11 points 3-fold serial dilutions. After addition of cells to compound plates, plates were placed to humidified 5% CO2 37 incubator for 3 days. 10 μl of cells culture supernatant from the incubated plates was transferred into new black 384-well plates.
Adjusted the TZMb1 cells concentration and 40 μl of TZMb1 cells was added into each well in the black 384-well plates. After addition of the TZMb1 cells to the black plates, black plates were placed to humidified 5% CO2 37 incubator for 24 h, then β-Gal activity was measured.
The anti viral activity %=(measured number-lowest mean number)/(highest mean number-lowest mean number)×100. The IC50 values were calculated by Median Equation and the IC curve was generated by Graphpad Prism V 5.03.
as §1

Structure (SMILES) | TC50 (PM) [1] | IC50 [2] | IC50 (PM) [2]
CC(C)C1=C2[C@H]3CC[C@@H]4[C@@]5(C)CC[C@H](OC(=O)CC(C)(C)C(=O)O)C(C)(C)[C@@H]5CC[C@@]4(C)[C@]3(C)CC[C@@]2(c2nnc(-c3ccncc3)o2)CC1=O [Compound 27-13] | 200 | 17 nM | –
CC(C)C1=C2[C@H]3CC[C@@H]4[C@@]5(C)CC[C@H](OC(=O)CC(C)(C)C(=O)O)C(C)(C)[C@@H]5CC[C@@]4(C)[C@]3(C)CC[C@@]2(c2nnc(-c3ncc(Cl)cn3)o2)CC1=O [Compound 27-14] | 46 | 4.9 nM | –
CC(C)C1=C2[C@H]3CC[C@@H]4[C@@]5(C)CC[C@H](OC(=O)CC(C)(C)C(=O)O)C(C)(C)[C@@H]5CC[C@@]4(C)[C@]3(C)CC[C@@]2(Cc2nnc(Cc3ccc(Cl)cc3)o2)CC1=O [Compound 33] | 18 | 1.6 nM | –
CC(C)C1=C2[C@H]3CC[C@@H]4[C@@]5(C)CC[C@H](OC(=O)CC(C)(C)C(=O)O)C(C)(C)[C@@H]5CC[C@@]4(C)[C@]3(C)CC[C@@]2(c2nnc(Cc3ccc(Cl)cc3)o2)CC1=O [Compound 38] | 100 | 1.6 nM | –
CC(C)C1=C2[C@H]3CC[C@@H]4[C@@]5(C)CC[C@H](OC(=O)CC(C)(C)C(=O)O)C(C)(C)[C@@H]5CC[C@@]4(C)[C@]3(C)CC[C@@]2(c2ncc(-c3ccc(Cl)cc3)o2)CC1=O [Compound 65] | 17.68 | 58 nM | –
CC(C)C1=C2[C@H]3CC[C@@H]4[C@@]5(C)CC[C@H](OC(=O)CC(C)(C)C(=O)O)C(C)(C)[C@@H]5CC[C@@]4(C)[C@]3(C)CC[C@@]2(c2cnc(-c3ccc(Cl)cc3)o2)CC1=O [Compound 77] | 200 | 159 nM | –
CC(C)C1=C2[C@H]3CC[C@@H]4[C@@]5(C)CC[C@H](OC(=O)CC(C)(C)C(=O)O)C(C)(C)[C@@H]5CC[C@@]4(C)[C@]3(C)CC[C@@]2(c2cc(=O)n(Cc3ccccc3)n2C)CC1 [Compound 89-2] | 37 | 58.4 nM | –
CC(C)C1=C2[C@H]3CC[C@@H]4[C@@]5(C)CC[C@H](OC(=O)CC(C)(C)C(=O)O)C(C)(C)[C@@H]5CC[C@@]4(C)[C@]3(C)CC[C@@]2(c2cc(=O)n(CC(=O)O)n2C)CC1=O [Compound 91-5] | 160 | – | 2110 nM
CC(C)C1=C2[C@H]3CC[C@@H]4[C@@]5(C)CC[C@H](OC(=O)CC(C)(C)C(=O)O)C(C)(C)[C@@H]5CC[C@@]4(C)[C@]3(C)CC[C@@]2(c2cc(=O)n(CC(N)=O)n2C)CC1=O [Compound 91-6] | 48 | 2 nM | –
CNC(=O)Cn1c(=O)cc([C@@]23CC[C@]4(C)[C@H](CC[C@@H]5[C@@]6(C)CC[C@H](OC(=O)CC(C)(C)C(=O)O)C(C)(C)[C@@H]6CC[C@]54C)C2=C(C(C)C)C(=O)C3)n1C [Compound 91-7] | 68 | 0.7 nM | –
CC(C)C1=C2[C@H]3CC[C@@H]4[C@@]5(C)CC[C@H](OC(=O)CC(C)(C)C(=O)O)C(C)(C)[C@@H]5CC[C@@]4(C)[C@]3(C)CC[C@@]2(c2cc(=O)n(CC(=O)N(C)C)n2C)CC1=O [Compound 91-8] | 48 | 3.3 nM | –
CC(C)C1=C2[C@H]3CC[C@@H]4[C@@]5(C)CC[C@H](OC(=O)CC(C)(C)C(=O)O)C(C)(C)[C@@H]5CC[C@@]4(C)[C@]3(C)CC[C@@]2(c2cc(=O)n(Cc3ccc(Cl)cn3)n2C)CC1=O [Compound 91-9] | 26 | ≤ 0.17 nM | –
CC(C)C1=C2[C@H]3CC[C@@H]4[C@@]5(C)CC[C@H](OC(=O)CC(C)(C)C(=O)O)C(C)(C)[C@@H]5CC[C@@]4(C)[C@]3(C)CC[C@@]2(c2cc(=O)n(-c3ccc(Cl)cc3)n2C)CC1 [Compound 96-1] | 17 | 33 nM | –
CC(C)C1=C2[C@H]3CC[C@@H]4[C@@]5(C)CC[C@H](OC(=O)CC(C)(C)C(=O)O)C(C)(C)[C@@H]5CC[C@@]4(C)[C@]3(C)CC[C@@]2(c2cc(=O)n(-c3ccc(Cl)cc3)n2C)CC1=O [Compound 98-1] | 24 | 1.6 nM | –
COc1ccc(-n2c(=O)cc([C@@]34CC[C@]5(C)[C@H](CC[C@@H]6[C@@]7(C)CC[C@H](OC(=O)CC(C)(C)C(=O)O)C(C)(C)[C@@H]7CC[C@]65C)C3=C(C(C)C)C(=O)C4)n2C)cn1 [Compound 98-2] | 44 | 3 nM | –
CC(C)C1=C2[C@H]3CC[C@@H]4[C@@]5(C)CC[C@H](OC(=O)CC(C)(C)C(=O)O)C(C)(C)[C@@H]5CC[C@@]4(C)[C@]3(C)CC[C@@]2(c2cc(=O)n(-c3ccc(F)cc3)n2C)CC1=O [Compound 98-3] | 42 | 0.46 nM | –
CC(C)C1=C2[C@H]3CC[C@@H]4[C@@]5(C)CC[C@H](OC(=O)CC(C)(C)C(=O)O)C(C)(C)[C@@H]5CC[C@@]4(C)[C@]3(C)CC[C@@]2(c2cc(=O)n(-c3ccc(C#N)cc3)n2C)CC1=O [Compound 98-4] | 36 | 0.81 nM | –
CCn1c([C@@]23CC[C@]4(C)[C@H](CC[C@@H]5[C@@]6(C)CC[C@H](OC(=O)CC(C)(C)C(=O)O)C(C)(C)[C@@H]6CC[C@]54C)C2=C(C(C)C)C(=O)C3)cc(=O)n1-c1ccc(Cl)cc1 [Compound 98-5] | 13 | ≤ 0.17 nM | –
CCn1c([C@@]23CC[C@]4(C)[C@H](CC[C@@H]5[C@@]6(C)CC[C@H](OC(=O)CC(C)(C)C(=O)O)C(C)(C)[C@@H]6CC[C@]54C)C2=C(C(C)C)C(=O)C3)cc(=O)n1-c1ccc(Cl)cn1 [Compound 98-6] | 13 | ≤ 0.17 nM | –
CC(C)C1=C2[C@H]3CC[C@@H]4[C@@]5(C)CC[C@H](OC(=O)CC(C)(C)C(=O)O)C(C)(C)[C@@H]5CC[C@@]4(C)[C@]3(C)CC[C@@]2(c2cc(=O)n(-c3ccc(Cl)cn3)n2C)CC1=O [Compound 98-7] | 200 | ≤ 0.17 nM | –
CC(C)C1=C2[C@H]3CC[C@@H]4[C@@]5(C)CC[C@H](OC(=O)CC(C)(C)C(=O)O)C(C)(C)[C@@H]5CC[C@@]4(C)[C@]3(C)CC[C@@]2(c2nnc(-c3ccc(Cl)cc3)s2)CC1=O [Compound 102] | 9.93 | 175 nM | –
CC(C)C1=C2[C@H]3CC[C@@H]4[C@@]5(C)CC[C@H](OC(=O)CC(C)(C)C(=O)O)C(C)(C)[C@@H]5CC[C@@]4(C)[C@]3(C)CC[C@@]2(Cc2nc(-c3ccc(Cl)cc3)no2)CC1=O [Compound 108-2] | 26 | 160 nM | –
CC(C)C1=C2[C@H]3CC[C@@H]4[C@@]5(C)CC[C@H](OC(=O)CC(C)(C)C(=O)O)C(C)(C)[C@@H]5CC[C@@]4(C)[C@]3(C)CC[C@@]2(Cc2nnc(-c3ccc(Cl)cc3)n2CCN(C)C)CC1=O [Compound 116-1] | 35 | ≤ 0.17 nM | –
CNCCn1c(C[C@@]23CC[C@]4(C)[C@H](CC[C@@H]5[C@@]6(C)CC[C@H](OC(=O)CC(C)(C)C(=O)O)C(C)(C)[C@@H]6CC[C@]54C)C2=C(C(C)C)C(=O)C3)nnc1-c1ccc(Cl)cc1 [Compound 116-2] | 27 | 4.8 nM | –
CC(C)C1=C2[C@H]3CC[C@@H]4[C@@]5(C)CC[C@H](OC(=O)CC(C)(C)C(=O)O)C(C)(C)[C@@H]5CC[C@@]4(C)[C@]3(C)CC[C@@]2(c2nnc(-c3ccc(Cl)cc3)n2CCN(C)C)CC1=O [Compound 116-3] | 33 | 0.55 nM | –
CC(C)C1=C2[C@H]3CC[C@@H]4[C@@]5(C)CC[C@H](OC(=O)CC(C)(C)C(=O)O)C(C)(C)[C@@H]5CC[C@@]4(C)[C@]3(C)CC[C@@]2(Cc2nnc(-c3ccc(Cl)cc3)n2CCN)CC1=O [Compound 116-4] | 33 | 2.5 nM | –
CC(C)C1=C2[C@H]3CC[C@@H]4[C@@]5(C)CC[C@H](OC(=O)CC(C)(C)C(=O)O)C(C)(C)[C@@H]5CC[C@@]4(C)[C@]3(C)CC[C@@]2([C@@H](O)c2nnc(-c3ccc(Cl)cc3)o2)CC1=O [Compound 127-1] | 200 | 1.6 nM | –
